According to US7799809B2, “Carboxamide compounds and their use as calpain inhibitors” (Abbott GmbH & Co. KG, priority 2006, dated 2010):

Experiments:
Format in all cases: biochemical
cathepsin L = target: T1, cathepsin L (Homo sapiens, UniProt P07711); experiment: Cathepsin L enzyme inhibition in vitro (kinetic fluorescence assay); conditions: cathepsin L isolated from human liver vs calpain I
T1 construct: cathepsin L—isolated from human liver (Calbiochem #219402); purchased Calbiochem 219402; host or cells: human liver (tissue-derived)
How it was run: (§1)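 Cathepsin B (0.25 nM, human liver) with 100 μM Z-Phe-Arg-AMC; L (1 nM, human liver) with 2 μM Z-Phe-Arg-AMC; S (0.5 nM, recombinant) with 20 μM Z-Val-Val-Arg-AMC. pH 6.0 MES buffer, 2.5 mM L-cysteine, room temperature. Kinetic fluorescence (ex 390/em 460 nm); apparent Ki from IC50 by Cheng-Prusoff.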

cathepsin K = target: T2, cathepsin K (Homo sapiens, UniProt P43235); experiment: Cathepsin K enzyme inhibition in vitro (kinetic fluorescence assay); conditions: cathepsin K activated from recombinant human procathepsin K vs calpain I
T2 construct: purchased Calbiochem 342001; host or cells: E. coli
T2 sequence (P43235 115-329): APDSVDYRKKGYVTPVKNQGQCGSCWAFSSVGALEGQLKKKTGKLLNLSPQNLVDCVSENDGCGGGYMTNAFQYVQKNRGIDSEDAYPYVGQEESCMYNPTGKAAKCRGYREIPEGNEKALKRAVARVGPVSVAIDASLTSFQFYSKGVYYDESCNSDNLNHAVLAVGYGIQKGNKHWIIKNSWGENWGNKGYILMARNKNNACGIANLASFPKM
Protocol: The following solutions and buffers were employed: • HBS (for 40 ml): 800 μl M HEPES; 2.16 ml 100 mM KCl; 4.8 ml 1M NaCl; 3.59 ml 5% glucose; 60 μl μM MgSO4; 400 μl 100 mM Na pyruvate, 28.19 ml water; pH 7.2-7.5. • lysis buffer (for 20 ml): 400 μl M Tris pH 8.2; 2.74 ml 1M NaCl; 520 μl 0.5M EDTA; 2 ml 10% triton X-100; 0.8 ml (=1:25) CompletePlus (1 tablet/2 ml H2O); 200 μl 100 mM Pefabloc; 13.34 ml water, pH 8.2. • TBST (10×) (for 1 l): 100 mM Tris (12.1 g); 1.5M NaCl (87 g); 1% Tween 20 (10 g), adjusted to pH 8. I Enzyme Inhibition In Vitro: • Testing for blockade of the corresponding enzymic activities was carried out by means of kinetic fluorescence assays (excitation 390 nm, emission 460 nm). • Apparent Ki values were calculated from the experimentally determined IC50 values by the Cheng-Prussoff relation assuming a reversible competitive enzyme inhibition. The Km values of the substrates used under the assay conditions indicated above were: 90 μM (Z-Phe-Arg-AMC, cathepsin B), 10 μM (Z-Gly-Pro-Arg-AMC, cathepsin K), 2 μM (Z-Phe-Arg-AMC, cathepsin L), and 30 μM (Z-Val-Val-Arg-AMC, cathepsin S). • The indicated Ki values are averages of the inhibition constants calculated on the basis of 2 to 4 independent dose-effect plots.
The following assays were used: • 1. Calpain I: • 20 nM calpain-I—isolated from human erythrocytes (Calbiochem #208713), 100 μM Suc-Leu-Tyr-AMC (Bachem #1-1355) as substrate in buffer with 62 mM imidazole, 0.3 mM CaCl2, 0.10% CHAPS, 0.05% BSA, 1 mM DTT at pH 7.3 and room temperature. • 2. Cathepsin B: • 0.25 nM cathepsin B—isolated from human liver (Calbiochem #219362), 100 μM Z-Phe-Arg-AMC (Bachem #I-1160) as substrate 50 mM MES, 2 mM EDTA, 0.05% Brij 35, 2.5 mM L-cysteine, pH 6.0, room temperature. • 3. Cathepsin K: • 3 nM cathepsin K—activated from recombinant human procathepsin K from E. coli (Calbiochem #342001), 10 μM Z-Gly-Pro-Arg-AMC (Biomol #P-142) as substrate in 50 mM MES, 2 mM EDTA, 0.05% Brij 35, 2.5 mM L-cysteine, pH 6.0, room temperature. • 4. Cathepsin L: • 1 nM cathepsin L—isolated from human liver (Calbiochem #219402), 2 μM Z-Phe-Arg-AMC (Bachem #1-1160) as substrate in 50 mM MES, 2 mM EDTA, 0.05% Brij 35, 2.5 mM L-cysteine, pH 6.0, room temperature. • 5. Cathepsin S: • 0.5 nM recombinant human cathepsin S from E. coli (Calbiochem #219343), 20 μM Z-Val-Val-Arg-AMC (Bachem #1-1540) as substrate in 50 mM MES, 2 mM EDTA, 0.05% Brij 35, 2.5 mM L-cysteine, pH 6.0, room temperature. • The results of the in vitro determination are indicated in Table 1. The following abbreviations are used in Table 1: • The “Calpain activity” column, ++ stands for a calpain Ki (Ki(calpain)) of ≦40 nM and + means: 40 nM<Ki(Calpain)≦100 nM. • The “Sel. cat. B” column indicates the Ki(cathepsin B)/Ki(calpain) ratio. In this connection, ++ means a Ki(cathepsin B)/Ki(calpain) ratio of ≧30 and + means 10≦Ki(cathepsin B)/Ki(calpain)<30. • The “Sel. cat. K” column indicates the Ki(cathepsin K)/Ki(calpain) ratio. In this connection, ++ means a Ki(cathepsin K)/Ki(calpain) ratio of ≧30 and + means 10≦Ki(cathepsin K)/Ki(calpain)<30. • The “Sel. cat. L” column indicates the Ki(cathepsin L)/Ki(calpain) ratio. In this connection, ++ means a Ki(cathepsin L)/Ki(calpain) ratio of ≧50 and + means 30≦Ki(cathepsin L)/Ki(calpain)<50. • The “Sel. cat. S” column indicates the Ki(cathepsin S)/Ki(calpain) ratio. In this connection, ++ means a Ki(cathepsin S)/Ki(calpain) ratio of ≧100 and + means 50≦Ki(cathepsin S)/Ki(calpain)<100.

cathepsin B = target: T3, cathepsin B (Homo sapiens, UniProt P07858); experiment: Cathepsin B enzyme inhibition in vitro (kinetic fluorescence assay); conditions: cathepsin B isolated from human liver vs calpain I
T3 construct: cathepsin B—isolated from human liver (Calbiochem #219362); purchased Calbiochem 219362; host or cells: human liver (tissue-derived)
How it was run: as §1

cathepsin S = target: T4, cathepsin S (Homo sapiens, UniProt P25774); experiment: Cathepsin S enzyme inhibition in vitro (kinetic fluorescence assay); conditions: recombinant human cathepsin S vs calpain I
T4 construct: purchased Calbiochem 219343; host or cells: E. coli
How it was run: as §1

T1 sequence (P07711 114-333): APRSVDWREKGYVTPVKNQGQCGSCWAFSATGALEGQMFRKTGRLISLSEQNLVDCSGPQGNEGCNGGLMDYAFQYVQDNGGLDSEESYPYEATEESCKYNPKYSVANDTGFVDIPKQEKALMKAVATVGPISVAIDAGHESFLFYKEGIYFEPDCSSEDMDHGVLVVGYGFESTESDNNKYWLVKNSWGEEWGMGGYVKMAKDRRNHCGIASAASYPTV
T4 sequence (P25774 115-331): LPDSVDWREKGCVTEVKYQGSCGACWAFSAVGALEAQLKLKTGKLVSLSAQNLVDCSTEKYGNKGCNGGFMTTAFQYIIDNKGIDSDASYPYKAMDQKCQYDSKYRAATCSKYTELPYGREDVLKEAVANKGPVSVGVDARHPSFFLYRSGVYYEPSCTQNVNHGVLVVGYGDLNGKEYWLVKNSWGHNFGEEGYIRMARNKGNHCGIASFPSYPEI

COc1ccc(CC(NC(=O)c2cccnc2-n2ccc(-c3ccccc3)n2)C(=O)C(N)=O)cc1 (stereo not drawn) [Example 80, N-[3-Amino-1-(4-methoxybenzyl)-2,3-dioxopropyl]-2-(3-phenyl-1H-pyrazol-1-yl)nicotinamide]
Sel cat. L: Ki(cathepsin L)/Ki(calpain) ratio (cathepsin L): ++ (++ means a Ki(cathepsin L)/Ki(calpain) ratio of ≧50) | Sel cat. K: Ki(cathepsin K)/Ki(calpain) ratio (cathepsin K): + (+ means 10≦Ki(cathepsin K)/Ki(calpain)<30) | Sel cat. B: Ki(cathepsin B)/Ki(calpain) ratio (cathepsin B): ++ (++ means a Ki(cathepsin B)/Ki(calpain) ratio of ≧30) | Sel cat. S: Ki(cathepsin S)/Ki(calpain) ratio (cathepsin S): ++ (++ means a Ki(cathepsin S)/Ki(calpain) ratio of ≧100)

NC(=O)C(=O)C(Cc1ccc(OC(F)(F)F)cc1)NC(=O)c1cccnc1-n1ccc(-c2ccc(F)cc2)n1 (stereo not drawn) [Example 132, N-[3-Amino-2,3-dioxo-1-({4-[(trifluoromethyl)oxy]phenyl}methyl)propyl]-2-[3-(4-fluorophenyl)-1H-pyrazol-1-yl]pyridine-3-carboxamide]
Sel cat. L: Ki(cathepsin L)/Ki(calpain) ratio (cathepsin L): ++ (++ means a Ki(cathepsin L)/Ki(calpain) ratio of ≧50) | Sel cat. K: Ki(cathepsin K)/Ki(calpain) ratio (cathepsin K): ++ (++ means a Ki(cathepsin K)/Ki(calpain) ratio of ≧30) | Sel cat. B: Ki(cathepsin B)/Ki(calpain) ratio (cathepsin B): + (+ means 10≦Ki(cathepsin B)/Ki(calpain)<30) | Sel cat. S: Ki(cathepsin S)/Ki(calpain) ratio (cathepsin S): ++ (++ means a Ki(cathepsin S)/Ki(calpain) ratio of ≧100)

COc1ccc(CC(NC(=O)c2cccnc2-n2ccc(-c3ccccc3F)n2)C(=O)C(N)=O)cc1 (stereo not drawn) [Example 92, N-(3-Amino-1-{[4-(methyloxy)phenyl]methyl}-2,3-dioxopropyl)-2-[3-(2-fluorophenyl)-1H-pyrazol-1-yl]pyridine-3-carboxamide]
Sel cat. L: Ki(cathepsin L)/Ki(calpain) ratio (cathepsin L): ++ (++ means a Ki(cathepsin L)/Ki(calpain) ratio of ≧50) | Sel cat. K: Ki(cathepsin K)/Ki(calpain) ratio (cathepsin K): + (+ means 10≦Ki(cathepsin K)/Ki(calpain)<30) | Sel cat. B: Ki(cathepsin B)/Ki(calpain) ratio (cathepsin B): ++ (++ means a Ki(cathepsin B)/Ki(calpain) ratio of ≧30) | Sel cat. S: Ki(cathepsin S)/Ki(calpain) ratio (cathepsin S): ++ (++ means a Ki(cathepsin S)/Ki(calpain) ratio of ≧100)

Cc1ccccc1-c1ccn(-c2ncccc2C(=O)NC(Cc2ccccc2)C(=O)C(N)=O)n1 (stereo not drawn) [Example 93, N-[3-Amino-2,3-dioxo-1-(phenylmethyl)propyl]-2-[3-(2-methylphenyl)-1H-pyrazol-1-yl]pyridine-3-carboxamide]
Sel cat. L: Ki(cathepsin L)/Ki(calpain) ratio (cathepsin L): ++ (++ means a Ki(cathepsin L)/Ki(calpain) ratio of ≧50) | Sel cat. K: Ki(cathepsin K)/Ki(calpain) ratio (cathepsin K): + (+ means 10≦Ki(cathepsin K)/Ki(calpain)<30) | Sel cat. B: Ki(cathepsin B)/Ki(calpain) ratio (cathepsin B): ++ (++ means a Ki(cathepsin B)/Ki(calpain) ratio of ≧30) | Sel cat. S: Ki(cathepsin S)/Ki(calpain) ratio (cathepsin S): ++ (++ means a Ki(cathepsin S)/Ki(calpain) ratio of ≧100)

NC(=O)C(=O)[C@H](Cc1ccccc1)NC(=O)c1cccnc1-n1ccc(-c2ccccc2)n1 [Example 107, N-[(1S)-3-Amino-2,3-dioxo-1-(phenylmethyl)propyl]-2-(3-phenyl-1H-pyrazol-1-yl)pyridine-3-carboxamide]
Sel cat. L: Ki(cathepsin L)/Ki(calpain) ratio (cathepsin L): ++ (++ means a Ki(cathepsin L)/Ki(calpain) ratio of ≧50) | Sel cat. K: Ki(cathepsin K)/Ki(calpain) ratio (cathepsin K): + (+ means 10≦Ki(cathepsin K)/Ki(calpain)<30) | Sel cat. B: Ki(cathepsin B)/Ki(calpain) ratio (cathepsin B): + (+ means 10≦Ki(cathepsin B)/Ki(calpain)<30) | Sel cat. S: Ki(cathepsin S)/Ki(calpain) ratio (cathepsin S): ++ (++ means a Ki(cathepsin S)/Ki(calpain) ratio of ≧100)

NC(=O)C(=O)C(Cc1ccccc1)NC(=O)c1cccnc1-n1ccc(-c2cccc3c2OCC3)n1 (stereo not drawn) [Example 164, N-[3-Amino-2,3-dioxo-1-(phenylmethyl)propyl]-2-[3-(2,3-dihydro-1-benzofuran-7-yl)-1H-pyrazol-1-yl]pyridine-3-carboxamide]
Sel cat. L: Ki(cathepsin L)/Ki(calpain) ratio (cathepsin L): ++ (++ means a Ki(cathepsin L)/Ki(calpain) ratio of ≧50) | Sel cat. K: Ki(cathepsin K)/Ki(calpain) ratio (cathepsin K): ++ (++ means a Ki(cathepsin K)/Ki(calpain) ratio of ≧30) | Sel cat. B: Ki(cathepsin B)/Ki(calpain) ratio (cathepsin B): + (+ means 10≦Ki(cathepsin B)/Ki(calpain)<30) | Sel cat. S: Ki(cathepsin S)/Ki(calpain) ratio (cathepsin S): ++ (++ means a Ki(cathepsin S)/Ki(calpain) ratio of ≧100)
